Source: patent US10202389B2, “Pyrazolopyrimidinyl inhibitors of ubiquitin-activating enzyme” (Millennium Pharmaceuticals, Inc., priority 2012, dated 2019)

target: recombinant human UAE (Homo sapiens (Human), UniProt P22314); assay: Ubiquitin Activating Enzyme (UAE) HTRF Assay; settings: read-out: % inhibition @0.111 μM
Sequence (P22314 whole entry): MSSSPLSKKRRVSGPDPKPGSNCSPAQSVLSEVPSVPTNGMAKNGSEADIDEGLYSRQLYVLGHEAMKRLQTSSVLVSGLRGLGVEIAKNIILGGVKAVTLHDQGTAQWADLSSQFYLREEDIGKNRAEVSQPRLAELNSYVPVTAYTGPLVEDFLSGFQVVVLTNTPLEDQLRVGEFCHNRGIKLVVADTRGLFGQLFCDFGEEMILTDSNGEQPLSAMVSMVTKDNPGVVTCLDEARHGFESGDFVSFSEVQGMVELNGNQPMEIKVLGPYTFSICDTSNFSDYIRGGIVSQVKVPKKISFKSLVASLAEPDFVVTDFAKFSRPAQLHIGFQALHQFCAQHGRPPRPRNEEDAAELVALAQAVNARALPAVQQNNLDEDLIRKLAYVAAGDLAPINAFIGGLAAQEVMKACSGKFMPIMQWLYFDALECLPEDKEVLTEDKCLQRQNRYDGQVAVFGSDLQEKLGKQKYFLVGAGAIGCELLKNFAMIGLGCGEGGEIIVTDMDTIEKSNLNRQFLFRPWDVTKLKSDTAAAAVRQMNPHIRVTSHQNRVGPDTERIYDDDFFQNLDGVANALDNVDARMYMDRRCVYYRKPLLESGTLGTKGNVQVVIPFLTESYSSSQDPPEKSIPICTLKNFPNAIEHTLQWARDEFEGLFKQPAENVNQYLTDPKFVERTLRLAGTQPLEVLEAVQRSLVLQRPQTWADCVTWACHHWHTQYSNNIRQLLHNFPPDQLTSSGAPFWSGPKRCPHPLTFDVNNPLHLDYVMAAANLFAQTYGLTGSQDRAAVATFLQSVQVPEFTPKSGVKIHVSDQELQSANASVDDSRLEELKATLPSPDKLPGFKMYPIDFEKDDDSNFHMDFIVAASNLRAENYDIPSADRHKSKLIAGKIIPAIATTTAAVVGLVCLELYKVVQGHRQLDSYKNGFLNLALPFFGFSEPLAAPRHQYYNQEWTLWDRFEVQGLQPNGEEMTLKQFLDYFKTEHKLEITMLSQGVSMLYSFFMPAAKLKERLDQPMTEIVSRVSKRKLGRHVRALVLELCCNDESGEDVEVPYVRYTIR
Experimental: After incubation for 120 minutes, quantification of the FRET is performed on the Pherostar (BMG).
For compounds whose values are marked with an asterisk (*), mouse UAE was used. For all other compounds, human UAE was used.

| inhibition at 0.111 µM [%] | Structure (SMILES) |
| --- | --- |
| 100 | NS(=O)(=O)OC[C@H]1C[C@@H](Nc2ccnc3cc(-c4cccc(SC(F)(F)F)c4)nn23)[C@H](O)[C@@H]1O (relative stereo) [Compound I-044, (rac)-((1R,2R,3S,4R)-2,3-dihydroxy-4-(2-(3-(trifluoromethylthio)phenyl)pyrazolo[1,5-a]pyrimidin-7-ylamino)cyclopentyl)methyl rel-sulfamate] |
| 99 | COc1cc(F)ccc1-c1cc2nccc(N[C@@H]3C[C@H](COS(N)(=O)=O)[C@@H](O)[C@H]3O)n2n1 (relative stereo) [Compound I-070, (rac)-((1R,2R,3S,4R)-4-(2-(4-fluoro-2-methoxyphenyl)pyrazolo[1,5-a]pyrimidin-7-ylamino)-2,3-dihydroxycyclopentyl)methyl rel-sulfamate] |
| 100 | CCCOC(C)(C)c1cccc(-c2cc3nccc(N[C@@H]4C[C@H](COS(N)(=O)=O)[C@@H](O)[C@H]4O)n3n2)c1 (relative stereo) [Compound I-090, (rac)-((1R,2R,3S,4R)-2,3-dihydroxy-4-(2-(3-(2-propoxypropan-2-yl)phenyl)pyrazolo[1,5-a]pyrimidin-7-ylamino)cyclopentyl)methyl rel-sulfamate] |
| 100 | NS(=O)(=O)OC[C@H]1C[C@@H](Nc2ccnc3cc(-c4cccc5cc(C(F)F)ccc45)nn23)[C@H](O)[C@@H]1O [Compound I-111, (s.e.)-((1R,2R,3S,4R)-4-(2-(6-(difluoromethyl)naphthalen-1-yl)pyrazolo[1,5-a]pyrimidin-7-ylamino)-2,3-dihydroxycyclopentyl)methyl sulfamate] |
| 100 | COc1ccc(C(C)(C)C)cc1-c1cc2nccc(N[C@@H]3C[C@H](COS(N)(=O)=O)[C@@H](O)[C@H]3O)n2n1 (relative stereo) [Compound I-063, (rac)-((1R,2R,3S,4R)-4-{[2-(5-tert-butyl-2-methoxyphenyl)pyrazolo[1,5-a]pyrimidin-7-yl]amino}-2,3-dihydroxycyclopentyl)methyl rel-sulfamate] |
| 100 | NS(=O)(=O)OC[C@H]1C[C@@H](Nc2ccnc3cc(-c4nc(-c5ccccc5)cs4)nn23)[C@H](O)[C@@H]1O (relative stereo) [Compound I-031, (rac)-[(1R,2R,3S,4R)-2,3-dihydroxy-4-{[2-(4-phenyl-1,3-thiazol-2-yl)pyrazolo[1,5-a]pyrimidin-7-yl]amino}cyclopentyl]methyl rel-sulfamate] |

The remaining lines, values behind:

| Structure (SMILES) | inhibition at 0.111 µM [%] |
| --- | --- |
| NS(=O)(=O)OC[C@H]1C[C@@H](Nc2ccnc3cc(-c4cc(F)c5ccccc5c4)nn23)[C@H](O)[C@@H]1O [Compound I-118, (s.e.)-((1R,2R,3S,4R)-4-(2-(4-fluoronaphthalen-2-yl)pyrazolo[1,5-a]pyrimidin-7-ylamino)-2,3-dihydroxycyclopentyl)methyl sulfamate] | 100 |
| NS(=O)(=O)OC[C@H]1C[C@@H](Nc2ccnc3cc(-c4ccc(OC(F)F)c5ccccc45)nn23)[C@H](O)[C@@H]1O [Compound I-112, (s.e.)-((1R,2R,3S,4R)-4-(2-(4-(difluoromethoxy)naphthalen-1-yl)pyrazolo[1,5-a]pyrimidin-7-ylamino)-2,3-dihydroxycyclopentyl)methyl sulfamate] | 100 |
| CC1(C)OCc2ccc(-c3cc4nccc(N[C@@H]5C[C@H](COS(N)(=O)=O)[C@@H](O)[C@H]5O)n4n3)cc21 (relative stereo) [Compound I-053, (rac)-((1R,2R,3S,4R)-4-(2-(3,3-dimethyl-1,3-dihydroisobenzofuran-5-yl)pyrazolo[1,5-a]pyrimidin-7-ylamino)-2,3-dihydroxycyclopentyl)methyl rel-sulfamate] | 100 |
| CC(CO)(CCl)c1cccc(-c2cc3nccc(N[C@@H]4C[C@H](COS(N)(=O)=O)[C@@H](O)[C@H]4O)n3n2)c1 (relative stereo) [Compound I-123, (rac)-{(1R,2R,3S,4R)-4-[(2-{3-[2-chloro-1-(hydroxymethyl)-1-methylethyl]phenyl}pyrazolo[1,5-a]pyrimidin-7-yl)amino]-2,3-dihydroxycyclopentyl}methyl rel-sulfamate] | 100 |
| NS(=O)(=O)OC[C@H]1C[C@@H](Nc2ccnc3cc(-c4cccc5ccccc45)nn23)[C@H](O)[C@@H]1O [Compound I-098, (s.e.)-((1R,2R,3S,4R)-2,3-dihydroxy-4-{[2-(1-naphthyl)pyrazolo[1,5-a]pyrimidin-7-yl]amino}cyclopentyl)methyl sulfamate] | 100 |
| NS(=O)(=O)OC[C@H]1C[C@@H](Nc2ccnc3cc(-c4csc5ccc(Cl)cc45)nn23)[C@H](O)[C@@H]1O (relative stereo) [Compound I-071, (rac)-((1R,2R,3S,4R)-4-(2-(5-chlorobenzo[b]thiophen-3-yl)pyrazolo[1,5-a]pyrimidin-7-ylamino)-2,3-dihydroxycyclopentyl)methyl rel-sulfamate] | 100 |
| NS(=O)(=O)OC[C@H]1C[C@@H](Nc2ccnc3cc(-c4ccnc5cc(Cl)ccc45)nn23)[C@H](O)[C@@H]1O (relative stereo) [Compound I-039, (rac)-((1R,2R,3S,4R)-4-(2-(7-chloroquinolin-4-yl)pyrazolo[1,5-a]pyrimidin-7-ylamino)-2,3-dihydroxycyclopentyl)methyl rel-sulfamate] | 100 |
| NS(=O)(=O)OC[C@H]1C[C@@H](Nc2ccnc3cc(-c4cccc5ccsc45)nn23)[C@H](O)[C@@H]1O (relative stereo) [Compound I-045, (rac)-((1R,2R,3S,4R)-4-((2-(Benzo[b]thiophen-7-yl)pyrazolo[1,5-a]pyrimidin-7-yl)amino)-2,3-dihydroxycyclopentyl)methyl rel-sulfamate] | 100 |
| CC(C)(c1cccc(-c2cc3nccc(N[C@@H]4C[C@H](COS(N)(=O)=O)[C@@H](O)[C@H]4O)n3n2)c1)C(F)(F)F (relative stereo) [Compound I-058, (rac)-((1R,2R,3S,4R)-2,3-dihydroxy-4-(2-(3-(1,1,1-trifluoro-2-methylpropan-2-yl)phenyl)pyrazolo[1,5-a]pyrimidin-7-ylamino)cyclopentyl)methyl rel-sulfamate] | 100 |
| COc1ccc(OC(F)(F)F)cc1-c1cc2nccc(N[C@@H]3C[C@H](COS(N)(=O)=O)[C@@H](O)[C@H]3O)n2n1 [Compound I-102, (s.e)-[(1R,2R,3S,4R)-2,3-dihydroxy-4-({2-[2-methoxy-5-(trifluoromethoxy)-phenyl]pyrazolo[1,5-a]pyrimidin-7-yl}amino)cyclopentyl]methyl sulfamate] | 100 |
| NS(=O)(=O)OC[C@H]1C[C@@H](Nc2ccnc3cc(-c4cccc(OC(F)(F)F)c4)nn23)[C@H](O)[C@@H]1O (relative stereo) [Compound I-040, (rac)-((1R,2R,3S,4R)-2,3-Dihydroxy-4-((2-(3-(trifluoromethoxy)phenyl)pyrazolo[1,5-a]pyrimidin-7-yl)amino)cyclopentyl)methyl rel-sulfamate] | 100 |
| NS(=O)(=O)OC[C@H]1C[C@@H](Nc2ccnc3cc(-c4c[nH]c5cc(Cl)ccc45)nn23)[C@H](O)[C@@H]1O (relative stereo) [Compound I-055, (rac)-[(1R,2R,3S,4R)-4-{[2-(6-chloro-1H-indol-3-yl)pyrazolo[1,5-a]pyrimidin-7-yl]amino}-2,3-dihydroxycyclopentyl]methyl rel-sulfamate] | 100 |
